The values that follow come from US20250304537A1 (Repare Therapeutics Inc., priority 2022, published 2025).

Where only a bound is given, the exact number is not on record here.

The subject of the first assay is PKMYT1 (CDK1 pThr14) in FUOV1 cells. The assay can be described thus: PKMYT1 cell-based activity assay, CDK1 pThr14 AlphaLISA in FUOV1 cells. Particulars: 2 h, 2 h compound incubation, read-out: FUOV-1 CDK1 pThr14 IC50. The procedure, abridged:
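FUOV1 cells were treated with PKMYT1 inhibitor for 2 h at 37 °C, then lysed. CDK1 pThr14 was measured by AlphaLISA, pairing an anti-pThr14 antibody with an anti-total CDK1 antibody (5 nM each). Signal read at 680/615 nm and used to derive IC50.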
For orientation: In Alpha technology, singlet oxygen from a donor bead excites a nearby acceptor bead.
The IC50 is the concentration needed to halve the response being measured. Regarding `Cc1ccc2[nH]ncc2c1-c1nc(-c2cccnc2NCC2COC2)nc(C(N)=O)c1N` [Compound 676], the concentration for half-maximal inhibition (IC50) is above 10000 nM. The same measure, in the same setting: the same measure for `Cc1ccc2[nH]ncc2c1-c1nc(-c2cc(F)c(F)cc2NC(=O)C(C)(C)C)nc(C(N)=O)c1N` [Compound 487]: 68 nM. Still for that read-out and setting: the same measure for `Cc1ccc2[nH]ncc2c1-c1nc(-c2ccc(F)cc2Nc2ccccn2)nc(C(N)=O)c1N` [Compound 516]: 30 nM; for `Cc1ccc2[nH]ncc2c1-c1nc(-c2cccnc2Nc2ncccc2C(F)F)nc(C(N)=O)c1N` [Compound 720]: 7 nM. On the same count and under the same terms, the same measure for `COc1ccccc1Nc1ncccc1-c1nc(C(N)=O)c(N)c(-c2c(C)ccc3[nH]ncc23)n1` [Compound 632]: 601 nM.

Take `[2H]C([2H])([2H])c1ccc2[nH]ncc2c1-c1nc(-c2cc(F)ccc2Nc2ncc(F)cn2)nc(C(N)=O)c1N` [Compound 684]: the IC50 worked out at 122 nM. Still for that read-out and setting: the same measure for `Cc1ccc(-c2nc(C(N)=O)c(N)c(-c3c(C)ccc4[nH]ncc34)n2)c(Nc2nc(C)cnc2C)n1` [Compound 689]: 6 nM; for `Cc1ccc2[nH]ncc2c1-c1nc(-c2cccnc2NC2CCOCC2(C)C)nc(C(N)=O)c1N` (centres unmarked) [Compound 596]: 72 nM; for `Cc1ccc2[nH]ncc2c1-c1nc(-c2ccc(F)cc2Nc2nccc(N3CCOCC3)n2)nc(C(N)=O)c1N` [Compound 577]: 702 nM.

As for `Cc1ccc2[nH]ncc2c1-c1nc(-c2ccc(F)cc2Nc2ncc(C#N)cn2)nc(C(N)=O)c1N` [Compound 535], the half-inhibitory concentration (IC50) is 151 nM. On the same count and under the same terms, then `Cc1ccc2[nH]ncc2c1-c1nc(-c2ccc(C#N)cc2Nc2nccnc2C)nc(C(N)=O)c1N` [Compound 751], with 14 nM; and `Cc1ccc2[nH]ncc2c1-c1nc(-c2cc(F)cnc2N[C@H]2CC[C@](C)(O)CC2)nc(C(N)=O)c1N` [Compound 722], with 232 nM; and `Cc1ccc2[nH]ncc2c1-c1nc(-c2cccnc2NCC2CCOCC2)nc(C(N)=O)c1N` [Compound 593], with 297 nM. Regarding `Cc1ccc2[nH]ncc2c1-c1nc(-c2cc(F)ccc2Nc2ncc(Cl)s2)nc(C(N)=O)c1N` [Compound 510], the concentration for half-maximal inhibition (IC50) amounted to 871 nM. In the case of `Cc1ccc2[nH]ncc2c1-c1nc(-c2ccc(F)cc2Nc2ccnc(C(F)(F)F)c2)nc(C(N)=O)c1N` [Compound 585], the half-inhibitory concentration (IC50) was found to be 127 nM.

Take `Cc1ccc2[nH]ncc2c1-c1nc(-c2cccnc2Nc2nccnc2C)nc(C(N)=O)c1N` [Compound 728]: the half-inhibitory concentration (IC50) amounted to 56 nM. Take `Cc1ccc2[nH]ncc2c1-c1nc(-c2cc(F)c(F)cc2NCc2cccnc2)nc(C(N)=O)c1N` [Compound 496]: the concentration for half-maximal inhibition (IC50) worked out at 465 nM. Still for that read-out and setting: the same measure for `Cc1ccc2[nH]ncc2c1-c1nc(-c2cccnc2Nc2cccc(S(N)(=O)=O)c2)nc(C(N)=O)c1N` [Compound 631]: 96 nM; for `Cc1ccc2[nH]ncc2c1-c1nc(-c2cccnc2N[C@@H]2CC[C@@H](O)C2)nc(C(N)=O)c1N` [Compound 786]: 9 nM. On the same count and under the same terms, the same measure for `Cc1ccc2[nH]ncc2c1-c1nc(-c2ccc(F)cc2Nc2ccccc2F)nc(C(N)=O)c1N` [Compound 589]: 111 nM. Same read-out and setting: the same measure for `Cc1ccc2[nH]ncc2c1-c1nc(-c2cccnc2NCCC#N)nc(C(N)=O)c1N` [Compound 542]: 77 nM. Regarding `Cc1ccc2[nH]ncc2c1-c1nc(-c2cccnc2N2CCOCC2)nc(C(N)=O)c1N` [Compound 662], the IC50 was above 10000 nM. Still for that read-out and setting: the same measure for `Cc1ccc2[nH]ncc2c1-c1nc(-c2cccnc2NC2CCSCC2)nc(C(N)=O)c1N` [Compound 597]: 49 nM; for `Cc1ccc2[nH]ncc2c1-c1nc(-c2cccnc2N[C@H]2[C@@H]3COC[C@@H]32)nc(C(N)=O)c1N` [Compound 545]: 43 nM. On the same count and under the same terms, the same measure for `Cc1cc(F)c2[nH]ncc2c1-c1nc(-c2cc(F)ccc2Nc2ncc(F)cn2)nc(C(N)=O)c1N` [Compound 677]: 451 nM; for `Cc1ccc2[nH]ncc2c1-c1cc2c(oc3ccc(OCC(C)(C)C#N)nc32)c(C(N)=O)c1N` [Compound 559]: 1290 nM. With `Cc1ccc2[nH]ncc2c1-c1nc(-c2cccnc2NC[C@H]2CCCOC2)nc(C(N)=O)c1N` [Compound 667], the IC50 amounted to 42 nM.

Take `Cc1ccc2[nH]ncc2c1-c1nc(-c2ccc(Cl)nc2Nc2nccnc2C)nc(C(N)=O)c1N` [Compound 780]: the IC50 is 25 nM. As to `Cc1ccc2[nH]ncc2c1-c1nc(-c2cc(F)c(F)cc2NCC2(C#N)CC2)nc(C(N)=O)c1N` [Compound 517], the 50% inhibitory concentration (IC50) amounted to 139 nM.

Still in this assay, the particulars now being: 2 h, 2 h incubation, read-out: FUOV-1 CDK1 pThr14 IC50.
`[2H]C([2H])([2H])c1ccc2[nH]ncc2c1-c1nc(-c2ccc(C3CC3)nc2Nc2ncccc2F)nc(C(N)=O)c1N` [Compound 47]: the half-inhibitory concentration (IC50) came out at 13 nM.

Turning to `COC(COc1nccc(-c2cc(-c3c(C)ccc4[nH]ncc34)c(N)c(C(N)=O)n2)n1)c1ccccc1` (centres unmarked) [Compound 238], the IC50 was found to be 92 nM.

Staying with this assay, now noted: 2 h, 2 hours with compound, read-out: FUOV-1 CDK1 pThr14 IC50.
As to `Cc1c(F)cc2[nH]ncc2c1-c1nc(-c2cc(F)cnc2NCC(C)(C)C#N)nc(C(N)=O)c1N` [Compound 859], the IC50 was found to be 41 nM. Turning to `Cc1cc(F)c2[nH]ncc2c1-c1nc(-c2cc(F)cnc2N[C@H]2CC[C@@](C)(O)CC2)nc(C(N)=O)c1N` [Compound 875], the 50% inhibitory concentration (IC50) is 170 nM. Still for that read-out and setting: the same measure for `Cc1ccc2[nH]ncc2c1-c1nc(-c2ccc(F)cc2NC2CS(=O)(=O)C2)nc(C(N)=O)c1N` [Compound 811, 5-amino-2-(2-((1,1-dioxidothietan-3-yl)amino)-4-fluorophenyl)-6-(5-methyl-1H-indazol-4-yl)pyrimidine-4-carboxamide]: 30 nM; for `Cc1ccc2[nH]ncc2c1-c1nc(-c2ccc(C#N)nc2NC2CCOCC2)nc(C(N)=O)c1N` [Compound 810]: 96 nM; for `Cc1ccc2[nH]ncc2c1-c1nc(-c2cccnc2Nc2nc(F)ccc2F)nc(C(N)=O)c1O` [Compound 806, 2-(2-((3,6-difluoropyridin-2-yl)amino)pyridin-3-yl)-5-hydroxy-6-(5-methyl-1H-indazol-4-yl)pyrimidine-4-carboxamide]: above 10000 nM. Regarding `Cc1ccc(F)c(Nc2ncccc2-c2cc(C(N)=O)c(N)c(-c3c(C)ccc4[nH]ncc34)n2)n1` [Compound 827, 5-amino-2′-((3-fluoro-6-methylpyridin-2-yl)amino)-6-(5-methyl-1H-indazol-4-yl)-[2,3′-bipyridine]-4-carboxamide], the half-maximal inhibitory concentration (IC50) was 12 nM. Take `NC(=O)c1nc(-c2cccnc2NCC(F)(F)F)nc(-c2c(Cl)c(F)cc3[nH]ncc23)c1N` [Compound 942]: the IC50 was 396 nM. Still for that read-out and setting: the same measure for `Cc1ccc(-c2nc(C(N)=O)c(N)c(-c3c(F)ccc4[nH]ncc34)n2)c(Nc2ncccn2)n1` [Compound 953]: 153 nM; for `Cc1ccc2[nH]ncc2c1-c1nc(-c2ccnnc2Nc2ncccc2F)nc(C(N)=O)c1N` [Compound 886, 5-amino-2-(3-((3-fluoropyridin-2-yl)amino)pyridazin-4-yl)-6-(5-methyl-1H-indazol-4-yl)pyrimidine-4-carboxamide]: 37 nM; for `Cc1ccc2[nH]ncc2c1-c1nc(-c2cc(F)cnc2N[C@@H]2COC[C@@H]2O)nc(C(N)=O)c1N` [Compound 814]: 71 nM. Take `Cc1ccc(F)c(Nc2nc(F)ccc2-c2nc(C(N)=O)c(N)c(-c3c(C)c(F)cc4[nH]ncc34)n2)n1` [Compound 850]: the half-inhibitory concentration (IC50) turned out to be 5 nM. Still for that read-out and setting: the same measure for `Cc1ccc2[nH]ncc2c1-c1nc(-c2cc(F)cnc2NC2CCN(CC(F)F)CC2)nc(C(N)=O)c1N` [Compound 876]: 734 nM; for `N#Cc1cccnc1Nc1nc(F)ccc1-c1nc(C(N)=O)c(N)c(-c2c(F)ccc3[nH]ncc23)n1` [Compound 969]: 16 nM. Consider `Cc1ccc(-c2nc(C(N)=O)c(N)c(-c3c(C)ccc4[nH]ncc34)n2)c(Nc2nccc(Cl)n2)n1` [Compound 941], for which the IC50 amounted to 9 nM.

Consider `Cc1ccc2[nH]ncc2c1-c1nc(-c2cc(F)cnc2N[C@@H](C)C(F)(F)F)nc(C(N)=O)c1N` [Compound 888], for which the IC50 was found to be 111 nM. As to `Cc1ccc2[nH]ncc2c1-c1nc(-c2ccc(Cl)nc2Nc2ncccc2C#N)nc(C(N)=O)c1N` [Compound 935], the half-inhibitory concentration (IC50) was 8 nM. Still for that read-out and setting: then `Cc1ccc2[nH]ncc2c1-c1nc(-c2cn(C)nc2Nc2ncccc2F)nc(C(N)=O)c1N` [Compound 925], with 129 nM; and `Cc1c(F)cc2[nH]ncc2c1-c1nc(-c2cccnc2NCC(F)(F)F)nc(C(N)=O)c1N` [Compound 849], with 174 nM. With `Cc1ccc2[nH]ncc2c1-c1nc(-c2ccccc2-c2ccn[nH]2)nc(C(N)=O)c1N` [Compound 816], the half-maximal inhibitory concentration (IC50) was above 10000 nM.

As to `[2H]C([2H])([2H])c1ccc2[nH]ncc2c1-c1nc(-c2cccnc2NC23CC(C(=O)OC)(C2)C3)nc(C(N)=O)c1N` [Compound 961, methyl 3-((3-(5-amino-4-carbamoyl-6-(5-(methyl-d3)-1H-indazol-4-yl)pyrimidin-2-yl)pyridin-2-yl)amino)bicyclo[1.1.1]pentane-1-carboxylate], the IC50 was found to be 223 nM. For the compound `Cc1ccc2[nH]ncc2c1-c1nc(-c2cc(F)cnc2N[C@H]2CCOC[C@@H]2O)nc(C(N)=O)c1N` [Compound 801], the IC50 is above 10000 nM. As to `Cc1ccc2[nH]ncc2c1-c1nc(-c2cc(F)cnc2NC2CC(O)C2(C)C)nc(C(N)=O)c1N` (centres unmarked) [Compound 823], the half-inhibitory concentration (IC50) turned out to be 36 nM.

The same assay, now with this note: 2 h compound incubation, read-out: FUOV-1 CDK1 pThr14 IC50.
In the case of `Cc1ccc2[nH]ncc2c1-c1nc(-c2cccnc2Nc2cccnc2)nc(C(N)=O)c1N` [Compound 768], the IC50 was found to be 122 nM.

Staying with this assay, now noted: 2 hours with compound, read-out: FUOV-1 CDK1 pThr14 IC50.
`Cc1ccc2[nH]ncc2c1-c1nc(-c2cc(F)cnc2N[C@@H]2C[C@H]3CC[C@@H]2O3)nc(C(N)=O)c1N` [Compound 898]: the IC50 came out at 76 nM.

In the case of `Cc1ccc2[nH]ncc2c1-c1nc(-c2cc(F)cnc2N[C@@H]2C[C@@H]3CC[C@H]2O3)nc(C(N)=O)c1N` [Compound 837], the IC50 amounted to 22 nM.
